In PubChem BioAssay (NCI):
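96-well plates; 48 h exposure; 5 concentrations. Endpoints by linear interpolation between flanking doses. Not reached: highest tested concentration assigned. GI50: concentration for 50% inhibition of growth. TGI marks complete inhibition of growth.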

Key:
Experiment in all cases: NCI anticancer screen, dose series, 48 h
OVCAR-5 ovarian = tested on: OVCAR-5 ovarian
SNB-75 CNS = tested on: SNB-75 CNS
NCI-H23 lung = tested on: NCI-H23 lung
K-562 leukemia = tested on: K-562 leukemia
UACC-257 melanoma = tested on: UACC-257 melanoma
SW-620 colon = tested on: SW-620 colon
RXF 393 renal = tested on: RXF 393 renal
A549 NSCLC = tested on: A549 NSCLC
NCI-H460 lung = tested on: NCI-H460 lung
CAKI-1 renal = tested on: CAKI-1 renal
SK-MEL-28 melanoma = tested on: SK-MEL-28 melanoma
HL-60(TB) leukemia = tested on: HL-60(TB) leukemia
COLO 205 colon = tested on: COLO 205 colon
IGROV1 ovarian = tested on: IGROV1 ovarian
EKVX NSCLC = tested on: EKVX NSCLC
HOP-92 NSCLC = tested on: HOP-92 NSCLC
SF-539 CNS = tested on: SF-539 CNS
DU-145 prostate = tested on: DU-145 prostate
SK-MEL-5 melanoma = tested on: SK-MEL-5 melanoma
HT29 colon = tested on: HT29 colon
UACC-62 melanoma = tested on: UACC-62 melanoma
A498 renal = tested on: A498 renal
OVCAR-8 ovarian = tested on: OVCAR-8 ovarian
ACHN renal = tested on: ACHN renal
RPMI-8226 leukemia = tested on: RPMI-8226 leukemia
SK-OV-3 ovarian = tested on: SK-OV-3 ovarian
HCC-2998 colon = tested on: HCC-2998 colon
786-0 renal = tested on: 786-0 renal
T-47D breast = tested on: T-47D breast
M14 melanoma = tested on: M14 melanoma
SF-295 CNS = tested on: SF-295 CNS
HOP-62 NSCLC = tested on: HOP-62 NSCLC
SF-268 CNS = tested on: SF-268 CNS
NCI/ADR-RES ovarian = tested on: NCI/ADR-RES ovarian
KM12 colon = tested on: KM12 colon
LOX IMVI melanoma = tested on: LOX IMVI melanoma
SNB-19 CNS = tested on: SNB-19 CNS
MALME-3M melanoma = tested on: MALME-3M melanoma
SK-MEL-2 melanoma = tested on: SK-MEL-2 melanoma
OVCAR-4 ovarian = tested on: OVCAR-4 ovarian
U251 CNS = tested on: U251 CNS
SN12C renal = tested on: SN12C renal
MCF7 breast = tested on: MCF7 breast
HCT-15 colon = tested on: HCT-15 colon
TK-10 renal = tested on: TK-10 renal
BT-549 breast = tested on: BT-549 breast
HCT-116 colon = tested on: HCT-116 colon
PC-3 prostate = tested on: PC-3 prostate
MDA-MB-231 breast = tested on: MDA-MB-231 breast
CCRF-CEM leukemia = tested on: CCRF-CEM leukemia
MOLT-4 leukemia = tested on: MOLT-4 leukemia
NCI-H226 lung = tested on: NCI-H226 lung
HS 578T breast = tested on: HS 578T breast
UO-31 renal = tested on: UO-31 renal

With `CCC1=Cc2c(OC)cccc2OC12C=Cc1c(OC)cccc1O2` (stereo not drawn) the GI50 (OVCAR-5 ovarian) was 1840 nM, the TGI (OVCAR-5 ovarian) was > 100000 nM and the GI50 (SNB-75 CNS) was 1310 nM. The TGI (SNB-75 CNS) was 9270 nM, the GI50 (NCI-H23 lung) was 2930 nM and the TGI (NCI-H23 lung) was > 100000 nM. For the same compound, the GI50 (K-562 leukemia) was 463 nM, the TGI (K-562 leukemia) was > 100000 nM and the GI50 (UACC-257 melanoma) was 7480 nM. The TGI (UACC-257 melanoma) was > 100000 nM, the GI50 (SW-620 colon) was 707 nM and the TGI (SW-620 colon) was > 100000 nM. The GI50 (RXF 393 renal) was 990 nM, the TGI (RXF 393 renal) was 7290 nM and the GI50 (A549 NSCLC) was 1520 nM. The TGI (A549 NSCLC) was > 100000 nM, the GI50 (NCI-H460 lung) was 2570 nM and the TGI (NCI-H460 lung) was 14200 nM. For the same compound, the GI50 (CAKI-1 renal) was 858 nM, the TGI (CAKI-1 renal) was > 100000 nM and the GI50 (SK-MEL-28 melanoma) was > 100000 nM. For the same compound, the TGI (SK-MEL-28 melanoma) was > 100000 nM, the GI50 (HL-60(TB) leukemia) was 507 nM and the TGI (HL-60(TB) leukemia) was > 100000 nM. The GI50 (COLO 205 colon) was 1310 nM, the TGI (COLO 205 colon) was 3700 nM and the GI50 (IGROV1 ovarian) was 2500 nM. For the same compound, the TGI (IGROV1 ovarian) was > 100000 nM, the GI50 (EKVX NSCLC) was 4740 nM and the TGI (EKVX NSCLC) was > 100000 nM. It also gave a GI50 (HOP-92 NSCLC) of 1000 nM, a TGI (HOP-92 NSCLC) of 8790 nM and a GI50 (SF-539 CNS) of 1570 nM. The TGI (SF-539 CNS) was 9030 nM, the GI50 (DU-145 prostate) was 2140 nM and the TGI (DU-145 prostate) was > 100000 nM. The GI50 (SK-MEL-5 melanoma) was 1240 nM, the TGI (SK-MEL-5 melanoma) was 8330 nM and the GI50 (HT29 colon) was 508 nM. For the same compound, the TGI (HT29 colon) was 3760 nM, the GI50 (UACC-62 melanoma) was 530 nM and the TGI (UACC-62 melanoma) was > 100000 nM. The GI50 (A498 renal) was 1300 nM, the TGI (A498 renal) was 4170 nM and the GI50 (OVCAR-8 ovarian) was 2150 nM. For the same compound, the TGI (OVCAR-8 ovarian) was 6510 nM, the GI50 (ACHN renal) was 2850 nM and the TGI (ACHN renal) was > 100000 nM. For the same compound, the GI50 (RPMI-8226 leukemia) was 2870 nM, the TGI (RPMI-8226 leukemia) was > 100000 nM and the GI50 (SK-OV-3 ovarian) was 2930 nM. For the same compound, the TGI (SK-OV-3 ovarian) was > 100000 nM, the GI50 (HCC-2998 colon) was 2580 nM and the TGI (HCC-2998 colon) was 13200 nM. For the same compound, the GI50 (786-0 renal) was 1840 nM, the TGI (786-0 renal) was > 100000 nM and the GI50 (T-47D breast) was 16300 nM. For the same compound, the TGI (T-47D breast) was > 100000 nM, the GI50 (M14 melanoma) was 570 nM and the TGI (M14 melanoma) was 22000 nM. For the same compound, the GI50 (SF-295 CNS) was 1010 nM, the TGI (SF-295 CNS) was > 100000 nM and the GI50 (HOP-62 NSCLC) was 1660 nM. For the same compound, the TGI (HOP-62 NSCLC) was > 100000 nM, the GI50 (SF-268 CNS) was 3090 nM and the TGI (SF-268 CNS) was > 100000 nM. The GI50 (NCI/ADR-RES ovarian) was 678 nM, the TGI (NCI/ADR-RES ovarian) was > 100000 nM and the GI50 (KM12 colon) was 519 nM. The TGI (KM12 colon) was 32400 nM, the GI50 (LOX IMVI melanoma) was 1600 nM and the TGI (LOX IMVI melanoma) was > 100000 nM. The GI50 (SNB-19 CNS) was 646 nM, the TGI (SNB-19 CNS) was > 100000 nM and the GI50 (MALME-3M melanoma) was 3790 nM. For the same compound, the TGI (MALME-3M melanoma) was > 100000 nM, the GI50 (SK-MEL-2 melanoma) was 1220 nM and the TGI (SK-MEL-2 melanoma) was 6030 nM. For the same compound, the GI50 (OVCAR-4 ovarian) was 47400 nM, the TGI (OVCAR-4 ovarian) was > 100000 nM and the GI50 (U251 CNS) was 1090 nM. For the same compound, the TGI (U251 CNS) was > 100000 nM, the GI50 (SN12C renal) was 940 nM and the TGI (SN12C renal) was > 100000 nM. For the same compound, the GI50 (MCF7 breast) was 414 nM, the TGI (MCF7 breast) was > 100000 nM and the GI50 (HCT-15 colon) was 469 nM. For the same compound, the TGI (HCT-15 colon) was > 100000 nM, the GI50 (TK-10 renal) was 24500 nM and the TGI (TK-10 renal) was > 100000 nM. It also gave a GI50 (BT-549 breast) of 1610 nM, a TGI (BT-549 breast) of 6220 nM and a GI50 (HCT-116 colon) of 436 nM. For the same compound, the TGI (HCT-116 colon) was > 100000 nM, the GI50 (PC-3 prostate) was 1730 nM and the TGI (PC-3 prostate) was > 100000 nM. For the same compound, the GI50 (MDA-MB-231 breast) was 2030 nM, the TGI (MDA-MB-231 breast) was 73200 nM and the GI50 (CCRF-CEM leukemia) was 551 nM. The TGI (CCRF-CEM leukemia) was > 100000 nM, the GI50 (MOLT-4 leukemia) was 2390 nM and the TGI (MOLT-4 leukemia) was > 100000 nM. The GI50 (NCI-H226 lung) was 2840 nM, the TGI (NCI-H226 lung) was 52100 nM and the GI50 (HS 578T breast) was 2550 nM. For the same compound, the TGI (HS 578T breast) was > 100000 nM, the GI50 (UO-31 renal) was 2400 nM and the TGI (UO-31 renal) was > 100000 nM.
